Source: PubChem BioAssay (NCI)
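All cell lines were grown in 96-well plates and treated with compound for 48 hours. GI50 = concentration required for 50% inhibition of growth. TGI marks complete inhibition of growth.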

Key:
Test in all cases: inhibition of tumour cell growth, NCI panel, 48 h
HOP-92 NSCLC = test system: HOP-92 NSCLC
OVCAR-4 ovarian = test system: OVCAR-4 ovarian
U251 CNS = test system: U251 CNS
MOLT-4 leukemia = test system: MOLT-4 leukemia
BT-549 breast = test system: BT-549 breast
HCT-15 colon = test system: HCT-15 colon
SF-268 CNS = test system: SF-268 CNS
HL-60(TB) leukemia = test system: HL-60(TB) leukemia
MDA-MB-435 = test system: MDA-MB-435
SW-620 colon = test system: SW-620 colon

Compound	TGI (HOP-92 NSCLC)	TGI (OVCAR-4 ovarian)	TGI (U251 CNS)	TGI (MOLT-4 leukemia)	TGI (BT-549 breast)	TGI (HCT-15 colon)	TGI (SF-268 CNS)	TGI (HL-60(TB) leukemia)	TGI (MDA-MB-435)	TGI (SW-620 colon)	GI50 (HOP-92 NSCLC)	GI50 (OVCAR-4 ovarian)	GI50 (U251 CNS)	GI50 (MOLT-4 leukemia)	GI50 (BT-549 breast)	GI50 (HCT-15 colon)	GI50 (SF-268 CNS)	GI50 (HL-60(TB) leukemia)	GI50 (MDA-MB-435)	GI50 (SW-620 colon)
CC(Br)C(=O)NC(CO)C(=O)O (stereo not given)	> 100 µM	> 100 µM	> 100 µM	> 100 µM	> 100 µM	> 100 µM	> 100 µM	> 100 µM	> 100 µM	> 100 µM										
O=C1/C(=C/c2ccc(Cl)c(Cl)c2)CN(C(=O)CCN2CCC(=NO)CC2)C/C1=C\c1ccc(Cl)c(Cl)c1	3.82 µM	1.96 µM	0.818 µM	2.26 µM	1.84 µM	1.16 µM	2.88 µM	4.37 µM	2.12 µM	0.708 µM	1.56 µM	0.678 µM	0.268 µM	0.458 µM	0.829 µM	0.325 µM	1.06 µM	1.48 µM	0.827 µM	0.247 µM
Cc1ccc2c(-c3ccnc(Nc4ccc5c(c4)OCCO5)n3)c(-c3ccc(C(F)(F)F)cc3)nn2n1	19.2 µM	> 25 µM	> 25 µM	> 25 µM	> 25 µM	> 25 µM	> 25 µM	19.4 µM	> 25 µM	> 25 µM	1.4 µM	8.59 µM	20.8 µM	6.89 µM	4.45 µM	8.69 µM	> 25 µM	6.81 µM	17.2 µM	> 25 µM
COc1ccc2sc3c(NCCCN)nc4ccccc4c3c(=O)c2c1	3.39 µM	3.56 µM	3.19 µM	3.17 µM	3.55 µM	3.05 µM	3.44 µM	3.63 µM	3.21 µM	3.44 µM	1.36 µM	1.86 µM	1.62 µM	1.48 µM	1.69 µM	1.54 µM	1.66 µM	1.89 µM	1.74 µM	1.76 µM
COc1ccc(OC)c(/C=C/c2nc(=S)n(-c3ccc(Cl)cc3)[nH]2)c1	> 100 µM	> 100 µM	> 100 µM	> 100 µM	> 100 µM	> 100 µM	> 100 µM	> 100 µM	> 100 µM	> 100 µM	3.56 µM	20.6 µM	6.88 µM	7.74 µM	9.38 µM	4.39 µM	17.5 µM	3.57 µM	2.83 µM	5.09 µM
COc1ccc2c(c1)C(=O)c1c-2c(Nc2ccccc2OC)nc2ccccc12	> 100 µM	> 100 µM	> 100 µM	> 100 µM	> 100 µM	> 100 µM	> 100 µM	> 100 µM	> 100 µM	> 100 µM	26.4 µM	50.5 µM	83.2 µM	> 100 µM	> 100 µM	> 100 µM	> 100 µM	> 100 µM	> 100 µM	> 100 µM
Cn1c([N+](=O)[O-])cnc1C=C1C(=O)c2ccccc2C1=O	6.1 µM	55.4 µM	20.7 µM	17.6 µM	12.8 µM	6.77 µM	16.7 µM	6.08 µM	11.7 µM	13.1 µM	1.65 µM	6.36 µM	5.8 µM	3.68 µM	3.86 µM	2.13 µM	3.95 µM	2.27 µM	2.67 µM	3.34 µM
O=c1c2ccccc2sc2c(CO)ccc(NCCN3CCCCC3)c12	20.9 µM	9.46 µM	14.2 µM	5.36 µM	23 µM	14 µM	13.1 µM	11 µM	7.92 µM	11.2 µM										
O=C1NC(=N[C@@H](CO)c2ccccc2)S/C1=C\c1ccc2ncccc2c1	> 25 µM	> 25 µM	> 25 µM	> 25 µM	> 18.5 µM	> 25 µM	> 25 µM	19.4 µM	15.3 µM	> 25 µM	11.1 µM	12.5 µM	11 µM	9.19 µM	4.07 µM	6.19 µM	14.1 µM	6.07 µM	3.65 µM	7.25 µM
c1ccc2c(c1)SCCCS2	> 100 µM	> 100 µM	> 100 µM	> 100 µM	> 100 µM	> 100 µM	> 100 µM	> 100 µM	> 100 µM	> 100 µM										
CNC(=O)c1ncccc1Nc1nc(Nc2cc3c(cc2OC)CCCN3C(=O)CN(C)C)nc2[nH]ccc12	1.98 µM	6.67 µM	5.38 µM	5.76 µM	6.04 µM	9.35 µM	5.4 µM	0.803 µM	1.78 µM	3.22 µM	0.049 µM	2.98 µM	2.02 µM	1.05 µM	2.7 µM	1.84 µM	1.46 µM	0.0921 µM	0.244 µM	0.224 µM
CN[C@@H](C)C(=O)N[C@H]1CN(S(=O)(=O)c2cccc(S(=O)(=O)N3CC[C@H]4CC[C@@H](C(=O)NC(c5ccccc5)c5ccccc5)N4C(=O)[C@@H](NC(=O)[C@H](C)NC)C3)c2)CC[C@H]2CC[C@@H](C(=O)NC(c3ccccc3)c3ccccc3)N2C1=O	27.4 µM	0.128 µM	63.8 µM	> 100 µM	< 0.0197 µM	> 100 µM	47.8 µM	1.69 µM	21.6 µM	> 100 µM	7.71 µM	0.0187 µM	24.4 µM	47 µM	< 0.01 µM	> 93.6 µM	20.9 µM	0.0317 µM	1.89 µM	31.7 µM
CCN1C(=S)N(CC)C2C1NC(=S)N2/N=C/C=C/c1ccccc1OC (stereo not given)	> 76.7 µM	> 100 µM	24.4 µM	> 54.7 µM	8.56 µM	> 100 µM	44.8 µM	0.597 µM	0.177 µM	> 100 µM	3.56 µM	1.1 µM	0.354 µM	0.464 µM	0.899 µM	0.267 µM	0.913 µM	0.229 µM	0.0368 µM	0.338 µM
O=C1/C(=C\c2ccccc2)CN(C(=O)CCN2CCCCC2)C/C1=C/c1ccccc1	10.2 µM	4.34 µM	1.86 µM	0.714 µM	1.94 µM	4.12 µM	4.51 µM	1.17 µM	6.37 µM	0.364 µM										
